Results on four compounds are retold here after patent US9556183B2, “Substituted pyrazolylpyrazole derivative and use of same as herbicide” (KYOYU AGRI CO., LTD., priority 2013, dated 2017).

Holding throughout (type): in vivo
In one series the test system is Echinochloa crus-galli. Kind of series: Paddy herbicidal activity test. The conditions noted are these: irrigated paddy pot, treated at 3.5 leaf stage of Echinochloa crus-galli, 30 days. How it is done:
(§1) Rice paddy soil was filled into a 1/10000 are pot followed by the addition of suitable amounts of water and chemical fertilizer, kneading, seeding with Echinochloa crus-galli, Monochoria vaginalis and Scirpus juncoides and maintaining in an irrigated state at a water depth of 3 cm. Wettable powder of Target Compound (I) shown in Table 1 prepared in compliance with the preparation examples were diluted with a suitable amount of water, rice plants in the 2.0 leaf stage were transplanted during 3.5 leaf stage of Echinochloa crus-galli, and treated by dropping in chemical in the prescribed amount per are using a pipette. After treating for 30 days in a glass greenhouse at an average atmospheric temperature of 30° C., the herbicidal efficacy thereof was investigated. Evaluation of herbicidal efficacy was carried out by comparing growth inhibition rate (%) with an untreated group, while evaluation of phytotoxicity was carried out by comparing growth inhibition rate (%) with the state of a complete eradication group, and were evaluated at 11 levels indicated below. [table]

For the next series, the system named is Monochoria vaginalis. Kind of series: Paddy herbicidal activity test. Conditions: irrigated paddy pot, 30 days. How it is done:
as §1

The subject of the next series is Scirpus juncoides. Kind of series: Paddy herbicidal activity test. Conditions: irrigated paddy pot, 30 days. How it is done:
as §1

The subject of the next series is Rice plants. Nature of the series: Paddy herbicidal activity test, phytotoxicity to transplanted rice. The conditions noted are these: rice transplanted at 2.0 leaf stage, 30 days. The procedure: as §1
In series [1] the test system is Amaranthus retroflexus. Kind of series: Farming soil treatment test. Conditions: soil surface spray prior to weed growth, 30 days. The procedure: (§2) Evaluation of herbicidal efficacy was carried out by comparing growth inhibition rate (%) with an untreated group, while evaluation of phytotoxicity was carried out by comparing growth inhibition rate (%) with the state of a complete eradication group, and were evaluated at 11 levels indicated below. [table] Field soil was filled into a 1/6000 are pot followed by seeding with Digitaria ciliaris, Chenopodium album and Amaranthus retroflexus and covering with soil. Wettable powder of compounds of formula (I) shown in Table 1 prepared in compliance with the preparation examples were diluted with water to the prescribed amount of chemical and uniformly sprayed onto each soil surface layer using 10 liters of sprayed water per are prior to weed growth following seeding. After treating for 30 days in a glass greenhouse at an average atmospheric temperature of 30° C., the herbicidal efficacy thereof was investigated. Evaluation of herbicidal efficacy was carried out in the same manner as the above-mentioned Test Example 1.

In series [2] the test system is Chenopodium album. Kind of series: Farming soil treatment test. The conditions noted are these: soil surface spray prior to weed growth, 30 days. How it is done: as §2
The subject of series [3] is Digitaria ciliaris. Kind of series: Farming soil treatment test. Conditions: soil surface spray prior to weed growth, 30 days. The procedure: as §2
The subject of series [4] is Amaranthus retroflexus. Kind of series: Weed foliar treatment test. Conditions: foliar spray, 3 weeks. How it is done: (§3) Evaluation of herbicidal efficacy was carried out by comparing growth inhibition rate (%) with an untreated group, while evaluation of phytotoxicity was carried out by comparing growth inhibition rate (%) with the state of a complete eradication group, and were evaluated at 11 levels indicated below. [table] Soil was filled into a 1/6000 are pot followed by seeding with Digitaria ciliaris, Chenopodium album and Amaranthus retroflexus, covering with soil, and cultivating in a glass greenhouse at an average atmospheric temperature of 25° C. Wettable powder of Target Compound (I) shown in Table 1 prepared in compliance with the preparation examples were diluted with water to the prescribed amount of chemical and uniformly sprayed onto the weeds using 15 liters of sprayed water per are when Digitaria ciliaris had grown to the 1.0 to 2.0 leaf stage. After treating for 3 weeks in a glass greenhouse at an average atmospheric temperature of 25° C., the herbicidal efficacy thereof was investigated, Evaluation of herbicidal efficacy was carried out in the same manner as the above-mentioned Test Example 1.

The test system of series [5] is Chenopodium album. Nature of the series: Weed foliar treatment test. The conditions noted are these: foliar spray, 3 weeks. The procedure:
as §3

Series [6] deals with Digitaria ciliaris. Kind of series: Weed foliar treatment test. The conditions noted are these: foliar spray at 1.0 to 2.0 leaf stage of Digitaria ciliaris, 3 weeks. How it is done: as §3

Molecules are shown by their SMILES.

`CC1CC1CNc1c(C#N)cnn1-c1nn2c(c1Cl)CCCC2` (centres unmarked) [Compound 12]: the “herbicidal efficacy (growth inhibition rate level) Echinochloa crus-galli” value in the series with Echinochloa crus-galli (1g a.i./10a) was 9 (9: 90% to less than 100%); with Echinochloa crus-galli (5g a.i./10a) it was 10 (10: 100%). The “herbicidal efficacy (growth inhibition rate level) Monochoria vaginalis” value with Monochoria vaginalis (1g a.i./10a) is on record as 8 (8: 80% to less than 90%); in the series with Monochoria vaginalis (5g a.i./10a), 9 (9: 90% to less than 100%). Further, the “herbicidal efficacy (growth inhibition rate level) Scirpus juncoides” value with Scirpus juncoides (1g a.i./10a) and in the series on Scirpus juncoides (5g a.i./10a) was 9 (9: 90% to less than 100%) each time. Further, the “phytotoxicity (growth inhibition rate level) Rice plants” value with Rice plants (1g a.i./10a) is on record as 0 (0 (exponent): 0% to less than 10% (growth inhibition rate)); with Rice plants (5g a.i./10a) it was 1 (1: 10% to less than 20%). Moreover, the “herbicidal efficacy (growth inhibition rate level) Amaranthus retroflexus” value in the series with Amaranthus retroflexus [1] (5g a.i./10a), in the series on Amaranthus retroflexus [1] (10g a.i./10a), in the series on Amaranthus retroflexus [4] (5g a.i./10a) and with Amaranthus retroflexus [4] (10g a.i./10a) was 10 (10: 100%) throughout. Besides, the “herbicidal efficacy (growth inhibition rate level) Chenopodium album” value in the series on Chenopodium album [2] (5g a.i./10a), in the series with Chenopodium album [2] (10g a.i./10a), with Chenopodium album [5] (5g a.i./10a) and in the series with Chenopodium album [5] (10g a.i./10a) was 10 (10: 100%) throughout. Also, the “herbicidal efficacy (growth inhibition rate level) Digitaria ciliaris” value in the series on Digitaria ciliaris [3] (5g a.i./10a), in the series on Digitaria ciliaris [3] (10g a.i./10a), in the series on Digitaria ciliaris [6] (5g a.i./10a) and in the series with Digitaria ciliaris [6] (10g a.i./10a) was 10 (10: 100%) each time.

For `N#Cc1cnn(-c2nn3c(c2Br)CCCC3)c1NCC1CC1` [Compound 147], the “herbicidal efficacy (growth inhibition rate level) Echinochloa crus-galli” value in the series with Echinochloa crus-galli (1g a.i./10a) is 8 (8: 80% to less than 90%); in the series with Echinochloa crus-galli (5g a.i./10a), 9 (9: 90% to less than 100%). In addition, the “herbicidal efficacy (growth inhibition rate level) Monochoria vaginalis” value is 7 (7: 70% to less than 80%) in the series on Monochoria vaginalis (1g a.i./10a) and 8 (8: 80% to less than 90%) with Monochoria vaginalis (5g a.i./10a). Further, the “herbicidal efficacy (growth inhibition rate level) Scirpus juncoides” value in the series on Scirpus juncoides (1g a.i./10a) is 7 (7: 70% to less than 80%); with Scirpus juncoides (5g a.i./10a) it was 9 (9: 90% to less than 100%). In addition, the “phytotoxicity (growth inhibition rate level) Rice plants” value in the series on Rice plants (1g a.i./10a) and with Rice plants (5g a.i./10a) was 0 (0 (exponent): 0% to less than 10% (growth inhibition rate)) in each case. Besides, the “herbicidal efficacy (growth inhibition rate level) Amaranthus retroflexus” value with Amaranthus retroflexus [1] (5g a.i./10a), in the series on Amaranthus retroflexus [1] (10g a.i./10a), in the series with Amaranthus retroflexus [4] (5g a.i./10a) and in the series on Amaranthus retroflexus [4] (10g a.i./10a) was 10 (10: 100%) in each case. In addition, the “herbicidal efficacy (growth inhibition rate level) Chenopodium album” value in the series on Chenopodium album [2] (5g a.i./10a), in the series on Chenopodium album [2] (10g a.i./10a), with Chenopodium album [5] (5g a.i./10a) and with Chenopodium album [5] (10g a.i./10a) was 10 (10: 100%) in each case. Also, the “herbicidal efficacy (growth inhibition rate level) Digitaria ciliaris” value in the series with Digitaria ciliaris [3] (5g a.i./10a), with Digitaria ciliaris [3] (10g a.i./10a), in the series on Digitaria ciliaris [6] (5g a.i./10a) and in the series with Digitaria ciliaris [6] (10g a.i./10a) was 10 (10: 100%) throughout.

In the case of `N#Cc1cnn(-c2nn3c(c2Br)CCCC3)c1N(CC1CC1)C(=O)C(F)(F)F` [Compound 148], the figures for the “herbicidal efficacy (growth inhibition rate level) Echinochloa crus-galli” value in the series on Echinochloa crus-galli (1g a.i./10a) and in the series on Echinochloa crus-galli (5g a.i./10a) were 8 (8: 80% to less than 90%) and 10 (10: 100%), respectively. The results for the “herbicidal efficacy (growth inhibition rate level) Monochoria vaginalis” value in the series with Monochoria vaginalis (1g a.i./10a) and in the series with Monochoria vaginalis (5g a.i./10a) were 7 (7: 70% to less than 80%) and 9 (9: 90% to less than 100%), respectively. Further, the “herbicidal efficacy (growth inhibition rate level) Scirpus juncoides” value in the series on Scirpus juncoides (1g a.i./10a) is reported as 7 (7: 70% to less than 80%); in the series with Scirpus juncoides (5g a.i./10a) it was 9 (9: 90% to less than 100%). For the same compound, the “phytotoxicity (growth inhibition rate level) Rice plants” value with Rice plants (1g a.i./10a) and in the series with Rice plants (5g a.i./10a) was 0 (0 (exponent): 0% to less than 10% (growth inhibition rate)) in each case. Moreover, the “herbicidal efficacy (growth inhibition rate level) Amaranthus retroflexus” value with Amaranthus retroflexus [1] (5g a.i./10a), with Amaranthus retroflexus [1] (10g a.i./10a), in the series with Amaranthus retroflexus [4] (5g a.i./10a) and in the series on Amaranthus retroflexus [4] (10g a.i./10a) was 10 (10: 100%) each time. Besides, the “herbicidal efficacy (growth inhibition rate level) Chenopodium album” value in the series on Chenopodium album [2] (5g a.i./10a), in the series on Chenopodium album [2] (10g a.i./10a), in the series with Chenopodium album [5] (5g a.i./10a) and with Chenopodium album [5] (10g a.i./10a) was 10 (10: 100%) in each case. Moreover, the “herbicidal efficacy (growth inhibition rate level) Digitaria ciliaris” value with Digitaria ciliaris [3] (5g a.i./10a), with Digitaria ciliaris [3] (10g a.i./10a), with Digitaria ciliaris [6] (5g a.i./10a) and in the series with Digitaria ciliaris [6] (10g a.i./10a) was 10 (10: 100%) in each case.

As for `N#Cc1cnn(-c2nn3c(c2Cl)CCCC3)c1NCC1CC1(F)F` (centres unmarked) [Compound 185], the “herbicidal efficacy (growth inhibition rate level) Echinochloa crus-galli” value with Echinochloa crus-galli (1g a.i./10a) and in the series with Echinochloa crus-galli (5g a.i./10a) was 10 (10: 100%) each time. Besides, the “herbicidal efficacy (growth inhibition rate level) Monochoria vaginalis” value in the series on Monochoria vaginalis (1g a.i./10a) and in the series with Monochoria vaginalis (5g a.i./10a) was 9 (9: 90% to less than 100%) in each case. The “herbicidal efficacy (growth inhibition rate level) Scirpus juncoides” value in the series with Scirpus juncoides (1g a.i./10a) and in the series on Scirpus juncoides (5g a.i./10a) was 10 (10: 100%) each time. Also, the “phytotoxicity (growth inhibition rate level) Rice plants” value with Rice plants (1g a.i./10a) was 0 (0 (exponent): 0% to less than 10% (growth inhibition rate)); in the series on Rice plants (5g a.i./10a), 1 (1: 10% to less than 20%). For the same compound, the “herbicidal efficacy (growth inhibition rate level) Amaranthus retroflexus” value in the series with Amaranthus retroflexus [1] (5g a.i./10a), in the series on Amaranthus retroflexus [1] (10g a.i./10a), with Amaranthus retroflexus [4] (5g a.i./10a) and in the series on Amaranthus retroflexus [4] (10g a.i./10a) was 10 (10: 100%) each time. The “herbicidal efficacy (growth inhibition rate level) Chenopodium album” value in the series on Chenopodium album [2] (5g a.i./10a), with Chenopodium album [2] (10g a.i./10a), in the series with Chenopodium album [5] (5g a.i./10a) and in the series with Chenopodium album [5] (10g a.i./10a) was 10 (10: 100%) each time. Besides, the “herbicidal efficacy (growth inhibition rate level) Digitaria ciliaris” value in the series with Digitaria ciliaris [3] (5g a.i./10a), with Digitaria ciliaris [3] (10g a.i./10a), in the series on Digitaria ciliaris [6] (5g a.i./10a) and in the series with Digitaria ciliaris [6] (10g a.i./10a) was 10 (10: 100%) each time.
